Like-named read-outs stand apart in the source and are kept apart here.
Legend:
[1] = log P by HPLC on reversed-phase column (EEC Directive 79/831 Annex V.A8); type: physicochemical; settings: pH 7.8, 0.001 molar aqueous ammonium hydrogencarbonate/acetonitrile, 55° C., read-out: log P (neutral)
From the text: Called log P (neutral) in the table.

[2] = tested on: Lucilia cuprina; experiment: Lucilia cuprina test; type: in vivo; settings: 100 ppm, after 2 days, L1 larvae
Experimental: (§1) Solvent: dimethyl sulphoxide
(§2) To produce a suitable preparation of active compound, 10 mg of active compound are mixed with 0.5 ml of dimethyl sulphoxide, and the concentrate is diluted with water to the desired concentration.
About 20 L1 larvae of the Australian sheep blowfly (Lucilia cuprina) are transferred into a test vessel containing minced horsemeat and the active compound preparation of the desired concentration.
After 2 days, the kill in % is determined. 100% means that all the larvae have been killed; 0% means that no larvae have been killed.

[3] = tested on: Ctenocephalides felis; experiment: Ctenocephalides felis oral test; type: in vivo; settings: 100 ppm in citrated cattle blood, after 2 days
From the text: Ctenocephalides felis—Oral Test Solvent: dimethyl sulphoxide […] Dilution with citrated cattle blood gives the desired concentration. About 20 unfed adult cat fleas (Ctenocephalides felis) are placed into a chamber which is closed at the top and bottom with gauze. A metal cylinder whose bottom end is closed with parafilm is placed onto the chamber. The cylinder contains the blood/active compound preparation, which can be imbibed by the fleas through the parafilm membrane.

[4] = tested on: Myzus persicae; experiment: Myzus persicae spray test (bell pepper plants); type: in vivo; settings: 100 ppm, after 6 days
Experimental: Myzus persicae Spray Test Solvent: 7 parts by weight of dimethylformamide Emulsifier: alkylaryl polyglycol ether […] To produce further test concentrations, the preparation is diluted with emulsifier-containing water. If the addition of ammonium salts or/and penetrants is required, these are each added in a concentration of 1000 ppm to the formulation solution. Bell pepper plants (Capsicum annuum) severely infested with the green peach aphid (Myzus persicae) are treated by spraying with the active compound preparation in the desired concentration.

[5] = tested on: Tetranychus urticae; experiment: Tetranychus urticae spray test, OP-resistant; type: in vivo; settings: after 6 days, bean leaf discs
Experimental: Tetranychus urticae—Spray Test, OP-Resistant
(§3) Solvent: 78.0 parts by weight of acetone • • 1.5 parts by weight of dimethylformamide
(§4) Emulsifier: alkylaryl polyglycol ether
(§5) To produce a suitable preparation of active compound, 1 part by weight of active compound is dissolved using the stated parts by weight of solvent and made up with water containing an emulsifier concentration of 1000 ppm until the desired concentration is attained. To produce further test concentrations, the preparation is diluted with emulsifier-containing water.
Discs of bean leaves (Phaseolus vulgaris) infested with all stages of the greenhouse red spider mite (Tetranychus urticae) are sprayed with an active compound preparation of the desired concentration.
After 6 days, the efficacy in % is determined. 100% means that all the spider mites have been killed; 0% means that no spider mites have been killed.

[6] = tested on: Phaedon cochleariae; experiment: Phaedon cochleariae spray test; type: in vivo; settings: 500 g/ha, after 7 days, larvae on Chinese cabbage leaf discs
Experimental: Phaedon cochleariae—Spray Test
as §3, §4, §5
After 7 days, the efficacy in % is determined. 100% means that all the beetle larvae have been killed; 0% means that no beetle larvae have been killed.

[7] = tested on: Boophilus microplus; experiment: Boophilus microplus injection test; type: in vivo; settings: 20 μg/animal, assessed after 7 days
Experimental: Boophilus microplus—Injection Test
as §1
To produce a suitable preparation of active compound, 10 mg of active compound are mixed with 0.5 ml of solvent and the concentrate is diluted with solvent to the desired concentration.
1 μl of the active compound solution is injected into the abdomen of 5 engorged adult female cattle ticks (Boophilus microplus). The animals are transferred into dishes and kept in a climate-controlled room.
Efficacy is assessed after 7 days by laying of fertile eggs. Eggs which are not visibly fertile are stored in a climate-controlled cabinet until the larvae hatch after about 42 days. An efficacy of 100% means that none of the ticks has laid any fertile eggs; 0% means that all the eggs are fertile.

[8] = tested on: Myzus persicae; experiment: Myzus persicae spray test (Chinese cabbage leaf discs); type: in vivo; settings: 500 g/ha, after 6 days
Experimental: Myzus persicae—Spray Test Solvent: 78 parts by weight of acetone • • 1.5 parts by weight of dimethylformamide Emulsifier: alkylaryl polyglycol ether […] To produce further test concentrations, the preparation is diluted with emulsifier-containing water. Discs of Chinese cabbage leaves (Brassica pekinensis) infested by all stages of the green peach aphid (Myzus persicae) are sprayed with an active compound preparation of the desired concentration.

[9] = tested on: Ctenocephalides felis; experiment: Ctenocephalides felis in vitro contact test with adult cat fleas; type: in vivo; settings: 5 μg/cm^2 (500 g/ha), after 48 h
Experimental: Ctenocephalides felis—In Vitro Contact Tests with Adult Cat Fleas
For the coating of the test tubes, 9 mg of active compound are first dissolved in 1 ml of acetone p.a. and then diluted to the desired concentration with acetone p.a. 250 μl of the solution are distributed homogeneously on the inner walls and the base of a 25 ml test tube by turning and rocking on an orbital shaker (rocking rotation at 30 rpm for 2 h). With 900 ppm active compound solution and internal surface 44.7 cm^2, given homogeneous distribution, an area-based dose of 5 μg/cm^2 is achieved.
After the solvent has evaporated off, the tubes are populated with 5-10 adult cat fleas (Ctenocephalides felis), sealed with a perforated plastic lid and incubated in a horizontal position at room temperature and ambient humidity. After 48 h, efficacy is determined. To this end, the test tubes are stood upright and the fleas are knocked to the base of the tube. Fleas which remain motionless at the base or move in an uncoordinated manner are considered to be dead or moribund.
100% efficacy means that all the fleas were dead or moribund. 0% efficacy means that no fleas were harmed.

[10] = tested on: Spodoptera frugiperda; experiment: Spodoptera frugiperda spray test (maize leaf discs); type: in vivo; settings: 500 g/ha, after 7 days, caterpillars on maize leaf discs
Experimental: Spodoptera frugiperda—Spray Test Solvent: 78.0 parts by weight of acetone • • 1.5 parts by weight of dimethylformamide Emulsifier: alkylaryl polyglycol ether […] To produce further test concentrations, the preparation is diluted with emulsifier-containing water. Leaf discs of maize (Zea mays) are sprayed with an active compound preparation of the desired concentration and, after drying, populated with caterpillars of the armyworm (Spodoptera frugiperda).

[11] = tested on: Musca domestica; experiment: Musca domestica test; type: in vivo; settings: after 2 days, adult houseflies
Experimental: as §1, §2
Vessels containing a sponge treated with sugar solution and the active compound preparation of the desired concentration are populated with 10 adult houseflies (Musca domestica).
After 2 days, the kill in % is determined. 100% means that all of the flies have been killed; 0% means that none of the flies have been killed.

[12] = tested on: Meloidogyne incognita; experiment: Meloidogyne incognita test; type: in vivo; settings: 20 ppm, after 14 days, lettuce
Experimental: Meloidogyne incognita Test
Solvent: 125.0 parts by weight of acetone
To produce a suitable preparation of active compound, 1 part by weight of active compound is mixed with the stated amount of solvent and the concentrate is diluted with water to the desired concentration.
Vessels are filled with sand, active compound solution, an egg/larvae suspension of the southern root-knot nematode (Meloidogyne incognita) and lettuce seeds. The lettuce seeds germinate and the plants develop. The galls develop on the roots.
After 14 days, the nematicidal efficacy in % is determined by the formation of galls. 100% means that no galls were found; 0% means that the number of galls on the treated plants corresponds to the untreated control.

[13] = reversed-phase HPLC column (C18)

Compound | efficacy (kill) [2] | efficacy (kill) [3] | efficacy [6] | efficacy (laying of fertile eggs) [7] | efficacy [8] | efficacy [10] | also measured
Cn1c(-c2nc(Cl)ccc2Cl)nc2cc(C(F)(F)F)ncc21 [2-(3,6-Dichloro-2-pyridyl)-3-methyl-6-(trifluoromethyl)imidazo[4,5-c]pyridine] | – | – | – | – | – | – | chromatographic logP [1]: 2.81
CCSc1ccc(Cl)nc1-c1nc2cc(C(F)(F)F)ncc2n1C [2-(6-Chloro-3-ethylsulphanyl-2-pyridyl)-3-methyl-6-(trifluoromethyl)imidazo[4,5-c]pyridine] | – | – | – | – | – | – | chromatographic logP [1, 13]: 3.06
CCS(=O)(=O)c1ccc(Cl)nc1-c1nc2cc(C(F)(F)F)ncc2n1C [2-(6-Chloro-3-ethylsulphonyl-2-pyridyl)-3-methyl-6-(trifluoromethyl)imidazo[4,5-c]pyridine] | – | – | – | – | – | – | chromatographic logP [1, 13]: 2.54
CCS(=O)(=O)c1ccc(N2CCOCC2)nc1-c1nc2cc(C(F)(F)F)ncc2n1C [Example 1] | 90% | 98% | – | – | – | – | efficacy (kill) [4]: 95%
CCS(=O)(=O)c1ccc(-n2cnc(S(C)(=O)=O)n2)nc1-c1nc2cc(C(F)(F)F)ncc2n1C [Example 5] | – | – | 100% | 90% | 90% | – | efficacy ([5]; 500 g/ha): 90%
CCS(=O)(=O)c1ccc(-n2ccc(C(F)F)n2)nc1-c1nc2cc(C(F)(F)F)ncc2n1C [Example 8] | 100% | 95% | 100% | 95% | 100% | 100% | efficacy [9]: 100%; efficacy (kill) ([11]; 100 ppm): 100%
CCS(=O)(=O)c1ccc(-n2cnc(NC(C)=O)n2)nc1-c1nc2cc(C(F)(F)F)ncc2n1C [Example 11] | 100% | 100% | 100% | – | – | – | efficacy [9]: 100%; efficacy (kill) [4]: 100%
CCS(=O)(=O)c1ccc(-n2cnc(Cl)n2)nc1-c1nc2cc(C(F)(F)F)ncc2n1C [Example 18] | 100% | 100% | 100% | – | 100% | – | efficacy [9]: 100%; efficacy (kill) ([11]; 20 ppm): 100%
CCS(=O)(=O)c1ccc(-c2ccsc2)nc1-c1nc2cc(C(F)(F)F)ncc2n1C [Example 20, 2-[3-Ethylsulphonyl-6-(3-thienyl)-2-pyridyl]-3-methyl-6-(trifluoromethyl)imidazo[4,5-c]pyridine] | 100% | – | – | – | – | – | chromatographic logP [1, 13]: 3.13
CCS(=O)(=O)c1ccc(-n2ccc(C#N)n2)nc1-c1nc2cc(C(F)(F)F)ncc2n1C [Example 22] | 100% | 100% | 100% | 80% | – | 100% | efficacy (kill) ([11]; 100 ppm): 80%
CCS(=O)(=O)c1ccc(-n2cc(C(F)(F)F)nn2)nc1-c1nc2cc(C(F)(F)F)ncc2n1C [Example 24] | 100% | – | – | 80% | – | 100% | efficacy (kill) ([11]; 100 ppm): 80%
CCS(=O)(=O)c1ccc(-n2cc(C(F)(F)F)cn2)nc1-c1nc2cc(C(F)(F)F)ncc2n1C [Example 26, 2-[3-Ethylsulphonyl-6-[4-(trifluoromethyl)pyrazol-1-yl]-2-pyridyl]-3-methyl-6-(trifluoromethyl)-imidazo[4,5-c]pyridine] | 100% | – | 100% | – | – | 100% | chromatographic logP [1, 13]: 3.34; efficacy (kill) ([11]; 100 ppm): 90%
CCS(=O)(=O)c1ccc(-n2ccnc2)nc1-c1nc2cc(C(F)(F)F)ncc2n1C [Example 33] | – | 100% | 100% | 80% | 90% | – | efficacy ([5]; 500 g/ha): 90%; efficacy [9]: 100%
CCS(=O)(=O)c1ccc(-n2cc(Cl)cn2)nc1-c1nc2cc(C(F)(F)F)ncc2n1C [Example 36] | 100% | 100% | 100% | 90% | – | 100% | efficacy (kill) ([11]; 100 ppm): 85%
CCS(=O)(=O)c1ccc(-n2ccc(CS(C)(=O)=O)n2)nc1-c1nc2cc(C(F)(F)F)ncc2n1C [Example 40] | – | – | 100% | – | 90% | – | efficacy ([5]; 500 g/ha): 90%
CCS(=O)(=O)c1ccc(-n2ccc(C[S+](C)[O-])n2)nc1-c1nc2cc(C(F)(F)F)ncc2n1C (stereo not shown) [Example 49] | – | – | 100% | – | 90% | – | efficacy ([5]; 500 g/ha): 90%
CCS(=O)(=O)c1ccc(-n2cc(F)cn2)nc1-c1nc2cc(C(F)(F)C(F)(F)F)ncc2n1C [Example 59] | 100% | 100% | 100% | 90% | – | 100% | efficacy (kill) ([11]; 100 ppm): 95%
CCS(=O)(=O)c1ccc(-c2ccncc2)nc1-c1nc2cc(C(F)(F)F)ncc2n1C [Example 78] | – | – | 100% | – | – | – | efficacy ([5]; 100 g/ha): 90%
CCS(=O)(=O)c1ccc(-c2cccs2)nc1-c1nc2cc(C(F)(F)F)ncc2n1C [Example 79] | – | – | – | – | – | – | efficacy ([5]; 100 g/ha): 90%
CCS(=O)(=O)c1ccc(-c2ccco2)nc1-c1nc2cc(C(F)(F)F)ncc2n1C [Example 80] | – | – | – | – | – | – | efficacy ([5]; 500 g/ha): 90%
CCS(=O)(=O)c1ccc(-c2cnc(Cl)n2C)nc1-c1nc2cc(C(F)(F)F)ncc2n1C [Example 81] | – | – | 100% | – | 90% | 83% | nematicidal efficacy (formation of galls) [12]: 100%
CNc1cnc(C(F)(F)C(F)(F)F)cc1N [II-1, N3-Methyl-6-(1,1,2,2,2-pentafluoroethyl)pyridine-3,4-diamine] | – | – | – | – | – | – | chromatographic logP [1, 13]: 1.68

Source: patent US10087192B2, “2-(het)aryl-substituted fused bicyclic heterocycle derivatives as pesticides” (BAYER CROPSCIENCE AKTIENGESELLSCHSAFT, priority 2015, dated 2018)
